pEC50: −log10 of the molar value.
Legend:
[1] = system: asexual-stage P. falciparum; assay: Antimalarial activity on asexual-stage P. falciparum in human blood (parasitemia, Giemsa smears); format: cell-based, Plasmodium falciparum NF54; details: day 4, 0.5% starting parasitemia, 2% hematocrit; read-out: EC50 for inhibition of the asexual-stage P. falciparum (parasitemia rates)
Protocol: 3–5-day cultured P. falciparum-infected red blood cells (iRBCs) were mixed with fresh human red blood cells (RBCs) (AB+ type) in complete RPMI 1640 to prepare cultures with 0.5% parasitemia and 2% hematocrit. AST was dissolved in dimethyl sulfoxide (DMSO). Then, 5 μL DMSO with AST at concentrations of 0, 0.5, 1, 2, 4, and 8 mM were added to the 0.5 mL iRBCs in a 48-well plate, yielding final concentrations of 5, 10, 20, 40, and 80 µM, respectively. The plate was incubated in a candle jar at 37 °C. Approximately 48 h later, the medium was replaced with fresh medium containing the same concentration of AST. Parasitemia was recorded via microscopic evaluation of Giemsa-stained blood smears on day 4 post-incubation.

[2] = system: Caco-2
[3] = system: HepG2
[4] = system: human cell lines (HepG2, HEK293, Caco-2, THP-1, macrophage)
[5] = system: macrophage-like cells differentiated from THP-1
[6] = biological target: T1, human GS-II (hGS-II) (Homo sapiens, UniProt P15104); assay: Glutamine synthetase assay, human GS-II (Glutamine/Glutamate-GLO); format: biochemical; details: 1 µM AST, 30 min, Figure 2b
T1 construct: purchased BioVision Inc., Milpitas, CA, USA
T1 sequence (P15104 whole entry): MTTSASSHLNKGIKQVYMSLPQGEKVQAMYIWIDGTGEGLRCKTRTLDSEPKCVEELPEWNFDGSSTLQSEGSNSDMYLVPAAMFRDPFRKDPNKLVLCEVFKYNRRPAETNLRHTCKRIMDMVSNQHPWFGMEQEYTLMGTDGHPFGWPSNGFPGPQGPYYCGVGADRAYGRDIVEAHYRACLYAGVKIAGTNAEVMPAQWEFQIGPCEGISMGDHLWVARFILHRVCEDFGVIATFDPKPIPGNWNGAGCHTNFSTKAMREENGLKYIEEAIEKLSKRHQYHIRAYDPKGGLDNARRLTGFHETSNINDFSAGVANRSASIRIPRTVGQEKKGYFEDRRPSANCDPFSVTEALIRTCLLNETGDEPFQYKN
Protocol: The activity and inhibition profiles of purified MBP-fused PfGS-I or human GS-II (hGS-II) (BioVision Inc., Milpitas, CA, USA) in the presence or absence of AST were estimated from glutamine production using Glutamine/Glutamate-GLO^TM Assay Kit (Promega, Madison, WI, USA). The assay mixture (50 mM imidazole-HCl buffer (pH 7.0), 7.6 mM ATP, 50 mM magnesium chloride, 50 mM ammonium chloride) with or without the indicated concentration of GS enzyme was preincubated in the presence or absence of the indicated concentrations of AST for 15 min at room temperature. The reaction was initiated through the addition of L-glutamate at 0.1 mM, the final concentration. The reaction mixtures were incubated at 37 °C with shaking at 300 rpm for the indicated time. The reactions were terminated by chilling the reaction mixture in ice water and filtered with 30 kDa Amicon Ultra centrifugal filters at 4 °C. Glutamate concentrations in the filtered samples were determined using a Glutamine/Glutamate-GLO^TM Assay as instructed in the kit’s manual, from which glutamine concentrations were estimated by subtracting the glutamate concentrations from the initial concentrations (0.1 mM). The EC50 (half maximal effective concentration) of AST for PfGS-I was calculated using Sigma Plot (Systat Software, Inc., Sun Jose, CA, USA).

[7] = system: P. falciparum transmission to Anopheles gambiae mosquitoes; assay: Transmission-blocking standard membrane feeding assay (SMFA), oocysts in mosquito midguts; format: in vivo, Plasmodium falciparum NF54; details: for Mean oocyst number per midgut: control 2.6; for Infect(%) percentage of infected mosquitoes: control 60
[8] = system: THP-1
[9] = system: Anopheles gambiae mosquitoes; assay: Mosquito mortality observed in SMFA (insecticidal activity); details: AST in blood meal
[10] = system: HEK293
[11] = biological target: T2, P. falciparum GS-I (PfGS-I) (Plasmodium falciparum, UniProt W7JM41); assay: Glutamine synthetase assay, purified MBP-fused PfGS-I (Glutamine/Glutamate-GLO); format: biochemical, Plasmodium falciparum NF54
T2 sequence (W7JM41 1-544): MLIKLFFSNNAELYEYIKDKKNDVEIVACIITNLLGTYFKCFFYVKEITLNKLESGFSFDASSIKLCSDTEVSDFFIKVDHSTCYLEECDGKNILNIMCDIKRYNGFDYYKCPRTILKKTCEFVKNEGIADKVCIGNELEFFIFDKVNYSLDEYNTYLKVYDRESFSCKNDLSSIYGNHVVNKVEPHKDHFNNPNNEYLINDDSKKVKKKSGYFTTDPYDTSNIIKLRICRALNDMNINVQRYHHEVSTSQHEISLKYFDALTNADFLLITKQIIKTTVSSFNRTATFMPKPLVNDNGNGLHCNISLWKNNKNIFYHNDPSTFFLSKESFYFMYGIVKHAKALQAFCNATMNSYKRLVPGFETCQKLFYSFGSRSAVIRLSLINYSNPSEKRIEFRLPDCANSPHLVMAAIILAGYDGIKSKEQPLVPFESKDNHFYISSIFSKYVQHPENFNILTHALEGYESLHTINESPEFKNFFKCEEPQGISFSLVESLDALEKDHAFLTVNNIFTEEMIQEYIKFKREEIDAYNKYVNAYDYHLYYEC

## C[As](=O)(O)CC[C@H](N)C(=O)O [AST, 2-amino-4-(hydroxymethylarsinoyl)butanoate]
[1]
  pEC50: 4.86
[2]
  CC50: 150 to 200 µM
[3]
  CC50: > 250 µM
[4]
  permeability (total cellular arsenic levels): permeable
[5]
  CC50: > 250 µM
[6]
  effect on activity of hGS-II: did not significantly reduce
[7]; 3 µM AST, SMFA
  inhibition of malaria transmission: completely inhibited
[7]; SMFA, day 7 post-infection, read-out: EC50 in blocking the transmission of the sexual-stage P. falciparum to mosquitos (oocysts per mosquito)
  pEC50: 6.47
[7]; [AST] 0.1 μM
  Mean oocyst number per midgut: 2.8
  Infect(%) percentage of infected mosquitoes: 59.6%
[7]; [AST] 0.3 μM
  Mean oocyst number per midgut: 1.4
  Infect(%) percentage of infected mosquitoes: 36.8%
[7]; [AST] 1 μM
  Mean oocyst number per midgut: 0.25
  Infect(%) percentage of infected mosquitoes: 20%
[7]; [AST] 3 μM
  Mean oocyst number per midgut: 0
  Infect(%) percentage of infected mosquitoes: 0%
[7]; [AST] 30 μM
  Mean oocyst number per midgut: 0
  Infect(%) percentage of infected mosquitoes: 0%
[8]
  CC50: > 250 µM
[9]
  insecticidal activity (dead mosquitoes): no dead mosquitoes were observed
[10]
  CC50: > 250 µM
  cytotoxicity relative to As(III) (times less cytotoxic): > 10 times
[11]
  pEC50: 6.40
[11]; 1 µM AST, PfGS-I 1 µM, 30 min, Figure 2b
  activity of PfGS-I compared with the control without AST treatment: less than 40%
[11]; AST at 100 µM, Figure 2c
  inhibition of PfGS-I activity: completely inhibited

From paper PMC10222646 (Microorganisms, 2023)
